Test results published in PubChem BioAssay (NCI).
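Values below derive from 48-hour exposures of cells grown in 96-well plates, with endpoints linearly interpolated between the two concentrations bracketing the appropriate inhibition level. TGI: total growth inhibition.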

What was measured:
Assay in all cases: growth of human tumour cells (NCI), 48 h
OVCAR-4 ovarian = tested on: OVCAR-4 ovarian
ACHN renal = tested on: ACHN renal
EKVX NSCLC = tested on: EKVX NSCLC
HL-60(TB) leukemia = tested on: HL-60(TB) leukemia
A498 renal = tested on: A498 renal
SR leukemia = tested on: SR leukemia
SN12C renal = tested on: SN12C renal
CCRF-CEM leukemia = tested on: CCRF-CEM leukemia
RXF 393 renal = tested on: RXF 393 renal
T-47D breast = tested on: T-47D breast
A549 NSCLC = tested on: A549 NSCLC
SK-MEL-5 melanoma = tested on: SK-MEL-5 melanoma
MDA-MB-435 = tested on: MDA-MB-435
SK-OV-3 ovarian = tested on: SK-OV-3 ovarian
SF-539 CNS = tested on: SF-539 CNS
UACC-62 melanoma = tested on: UACC-62 melanoma
HCC-2998 colon = tested on: HCC-2998 colon
OVCAR-5 ovarian = tested on: OVCAR-5 ovarian
MDA-N = tested on: MDA-N
SF-295 CNS = tested on: SF-295 CNS
M14 melanoma = tested on: M14 melanoma
RPMI-8226 leukemia = tested on: RPMI-8226 leukemia
786-0 renal = tested on: 786-0 renal
NCI-H23 lung = tested on: NCI-H23 lung
TK-10 renal = tested on: TK-10 renal
NCI-H522 lung = tested on: NCI-H522 lung
U251 CNS = tested on: U251 CNS
MCF7 breast = tested on: MCF7 breast
HT29 colon = tested on: HT29 colon
SNB-19 CNS = tested on: SNB-19 CNS
SK-MEL-28 melanoma = tested on: SK-MEL-28 melanoma
HCT-116 colon = tested on: HCT-116 colon
IGROV1 ovarian = tested on: IGROV1 ovarian
MOLT-4 leukemia = tested on: MOLT-4 leukemia
NCI/ADR-RES ovarian = tested on: NCI/ADR-RES ovarian
HOP-92 NSCLC = tested on: HOP-92 NSCLC
DU-145 prostate = tested on: DU-145 prostate
HS 578T breast = tested on: HS 578T breast
HCT-15 colon = tested on: HCT-15 colon
KM12 colon = tested on: KM12 colon
CAKI-1 renal = tested on: CAKI-1 renal
SK-MEL-2 melanoma = tested on: SK-MEL-2 melanoma
NCI-H460 lung = tested on: NCI-H460 lung
COLO 205 colon = tested on: COLO 205 colon
MDA-MB-231 breast = tested on: MDA-MB-231 breast
NCI-H226 lung = tested on: NCI-H226 lung
PC-3 prostate = tested on: PC-3 prostate
OVCAR-3 ovarian = tested on: OVCAR-3 ovarian
LOX IMVI melanoma = tested on: LOX IMVI melanoma
SW-620 colon = tested on: SW-620 colon
UACC-257 melanoma = tested on: UACC-257 melanoma
HOP-62 NSCLC = tested on: HOP-62 NSCLC
MALME-3M melanoma = tested on: MALME-3M melanoma
SF-268 CNS = tested on: SF-268 CNS
UO-31 renal = tested on: UO-31 renal
OVCAR-8 ovarian = tested on: OVCAR-8 ovarian
K-562 leukemia = tested on: K-562 leukemia
SNB-75 CNS = tested on: SNB-75 CNS
BT-549 breast = tested on: BT-549 breast

Cc1nc2ccccc2c(-n2cccn2)c1CCn1cccn1
TGI (OVCAR-4 ovarian): > 100 µM
TGI (ACHN renal): > 100 µM
TGI (EKVX NSCLC): > 100 µM
TGI (HL-60(TB) leukemia): > 100 µM
TGI (A498 renal): > 100 µM
TGI (SR leukemia): > 100 µM
TGI (SN12C renal): > 100 µM
TGI (CCRF-CEM leukemia): > 100 µM
TGI (RXF 393 renal): > 100 µM
TGI (T-47D breast): > 100 µM
TGI (A549 NSCLC): > 100 µM
TGI (SK-MEL-5 melanoma): > 100 µM
TGI (MDA-MB-435): > 100 µM
TGI (SK-OV-3 ovarian): > 100 µM
TGI (SF-539 CNS): > 100 µM
TGI (UACC-62 melanoma): > 100 µM
TGI (HCC-2998 colon): > 100 µM
TGI (OVCAR-5 ovarian): > 100 µM
TGI (MDA-N): > 100 µM
TGI (SF-295 CNS): > 100 µM
TGI (M14 melanoma): > 100 µM
TGI (RPMI-8226 leukemia): > 100 µM
TGI (786-0 renal): > 100 µM
TGI (NCI-H23 lung): > 100 µM
TGI (TK-10 renal): > 100 µM
TGI (NCI-H522 lung): > 100 µM
TGI (U251 CNS): > 100 µM
TGI (MCF7 breast): > 100 µM
TGI (HT29 colon): > 100 µM
TGI (SNB-19 CNS): > 100 µM
TGI (SK-MEL-28 melanoma): > 100 µM
TGI (HCT-116 colon): > 100 µM
TGI (IGROV1 ovarian): > 100 µM
TGI (MOLT-4 leukemia): > 100 µM
TGI (NCI/ADR-RES ovarian): > 100 µM
TGI (HOP-92 NSCLC): > 100 µM
TGI (DU-145 prostate): > 100 µM
TGI (HS 578T breast): > 100 µM
TGI (HCT-15 colon): > 100 µM
TGI (KM12 colon): > 100 µM
TGI (CAKI-1 renal): > 100 µM
TGI (SK-MEL-2 melanoma): > 100 µM
TGI (NCI-H460 lung): > 100 µM
TGI (COLO 205 colon): > 100 µM
TGI (MDA-MB-231 breast): > 100 µM
TGI (NCI-H226 lung): > 100 µM
TGI (PC-3 prostate): > 100 µM
TGI (OVCAR-3 ovarian): > 100 µM
TGI (LOX IMVI melanoma): > 100 µM
TGI (SW-620 colon): > 100 µM
TGI (UACC-257 melanoma): > 100 µM
TGI (HOP-62 NSCLC): > 100 µM
TGI (MALME-3M melanoma): > 100 µM
TGI (SF-268 CNS): > 100 µM
TGI (UO-31 renal): 3.43 µM
TGI (OVCAR-8 ovarian): > 100 µM
TGI (K-562 leukemia): > 100 µM

Cc1c2c(c(C)n1-c1ccccc1)C(=O)N(CCN1CCN(c3cccc(C(F)(F)F)c3)CC1)C2=O
TGI (OVCAR-4 ovarian): > 100 µM
TGI (ACHN renal): > 100 µM
TGI (EKVX NSCLC): > 100 µM
TGI (A498 renal): > 100 µM
TGI (SNB-75 CNS): > 100 µM
TGI (SN12C renal): > 100 µM
TGI (RXF 393 renal): > 100 µM
TGI (T-47D breast): > 100 µM
TGI (A549 NSCLC): > 100 µM
TGI (SK-MEL-5 melanoma): 20.8 µM
TGI (MDA-MB-435): > 100 µM
TGI (SK-OV-3 ovarian): > 100 µM
TGI (SF-539 CNS): > 100 µM
TGI (UACC-62 melanoma): > 100 µM
TGI (HCC-2998 colon): > 100 µM
TGI (OVCAR-5 ovarian): > 100 µM
TGI (MDA-N): > 100 µM
TGI (SF-295 CNS): > 100 µM
TGI (M14 melanoma): > 100 µM
TGI (RPMI-8226 leukemia): > 100 µM
TGI (786-0 renal): > 100 µM
TGI (NCI-H23 lung): > 100 µM
TGI (TK-10 renal): > 100 µM
TGI (NCI-H522 lung): > 100 µM
TGI (U251 CNS): > 100 µM
TGI (MCF7 breast): > 100 µM
TGI (HT29 colon): > 100 µM
TGI (BT-549 breast): > 100 µM
TGI (SNB-19 CNS): > 100 µM
TGI (HCT-116 colon): > 100 µM
TGI (IGROV1 ovarian): > 100 µM
TGI (MOLT-4 leukemia): > 100 µM
TGI (NCI/ADR-RES ovarian): > 100 µM
TGI (HOP-92 NSCLC): > 100 µM
TGI (DU-145 prostate): > 100 µM
TGI (HS 578T breast): > 100 µM
TGI (HCT-15 colon): > 100 µM
TGI (KM12 colon): > 100 µM
TGI (CAKI-1 renal): > 100 µM
TGI (SK-MEL-2 melanoma): > 100 µM
TGI (NCI-H460 lung): > 100 µM
TGI (COLO 205 colon): > 100 µM
TGI (MDA-MB-231 breast): > 100 µM
TGI (NCI-H226 lung): > 100 µM
TGI (PC-3 prostate): > 100 µM
TGI (OVCAR-3 ovarian): > 100 µM
TGI (LOX IMVI melanoma): > 100 µM
TGI (UACC-257 melanoma): > 100 µM
TGI (HOP-62 NSCLC): > 100 µM
TGI (MALME-3M melanoma): > 100 µM
TGI (SF-268 CNS): > 100 µM
TGI (UO-31 renal): > 100 µM
TGI (OVCAR-8 ovarian): > 100 µM
TGI (K-562 leukemia): > 100 µM
